# Experimental data as given in publication PMC5111741 (The European Journal of Neuroscience, 2016).
# Biological target: T1, rat prestin labelled with GFP (Rattus norvegicus, UniProt Q9EPH0)
# T1 sequence (Q9EPH0 1-744): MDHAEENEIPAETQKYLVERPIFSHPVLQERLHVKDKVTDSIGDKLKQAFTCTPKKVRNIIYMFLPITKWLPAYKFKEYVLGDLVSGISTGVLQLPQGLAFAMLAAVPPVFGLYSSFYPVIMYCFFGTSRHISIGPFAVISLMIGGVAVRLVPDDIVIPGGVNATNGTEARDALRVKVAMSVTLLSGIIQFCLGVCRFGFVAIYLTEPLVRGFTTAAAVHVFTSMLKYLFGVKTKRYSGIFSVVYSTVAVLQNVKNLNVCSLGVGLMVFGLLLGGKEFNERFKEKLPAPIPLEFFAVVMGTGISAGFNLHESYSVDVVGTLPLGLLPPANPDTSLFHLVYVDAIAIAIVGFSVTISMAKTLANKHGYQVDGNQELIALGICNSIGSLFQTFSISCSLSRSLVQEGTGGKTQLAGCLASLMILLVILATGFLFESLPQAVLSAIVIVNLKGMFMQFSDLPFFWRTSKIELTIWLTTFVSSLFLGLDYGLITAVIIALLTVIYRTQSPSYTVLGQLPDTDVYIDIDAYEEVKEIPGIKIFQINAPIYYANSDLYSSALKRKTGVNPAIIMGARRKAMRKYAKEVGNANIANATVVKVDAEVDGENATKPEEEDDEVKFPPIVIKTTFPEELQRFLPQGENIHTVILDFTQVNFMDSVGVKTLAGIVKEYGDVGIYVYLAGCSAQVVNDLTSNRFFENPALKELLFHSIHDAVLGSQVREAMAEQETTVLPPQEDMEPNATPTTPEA
# Assay: whole-cell patch clamp of transfected HEK […] cells, nonlinear capacitance
# Format: cell-based
# Settings: 500 μM extracellular 9-AC; intracellular 135 mM CsCl; pH 7.2; 21.5 °C
smiles,measurement,value
O=C(O)c1c2ccccc2cc2ccccc12 [9‐anthracenecarboxylic acid],Q max reduction at 500 μM,59 ± 19%
